Values quoted from earlier work, collected in US20080279967A1, “Composition and method for increasing the metabolism of free fatty acids and facilitating a favorable blood lipid” (priority 2007, published 2008).

Tested on: rats
Details: administration to rats

For `C[N+](C)(C)CCCC(=O)[O-]` [γ-butyrobetaine, 4-trimethylamniobutyrate], the “nitric oxide concentrations in blood” value is given as “increases” and the vasodilating activities is given as “elevated”.
